Where two headings read alike, the source gives them in different places. Starred links: 1 amine or outer side, 2 acyl side, 3 side chain; linkers in the order of their positions; H or OH if unused. Non-standard residues stand in square brackets, D forms with d. Residues, ends and D or L forms follow the SMILES beside them. Groups on a side chain read outwards from the residue. *: point of attachment. C20 diacid = O=C(O)CCCCCCCCCCCCCCCCCCC(=O)*; C18 diacid = O=C(O)CCCCCCCCCCCCCCCCC(=O)*; γGlu = O=C(O)[C@H](CCC(=O)[*:2])N[*:1]; AEEA = NCCOCCOCC(=O)O; Aib = CC(C)(N)C(=O)O
Legend:
human CRF2α receptor = biological target: T1, human CRF2α receptor (Homo sapiens, UniProt Q13324); assay: cAMP agonism at human CRF2 α receptor in TeloHEAC cells (Example 7); assay type: cell-based; settings: cAMP HTRF, TeloHEAC cells stably expressing human CRF2 α
T1 construct: expressed in transfected cells; host or cells: TeloHEAC
T1 sequence (Q13324 1-411): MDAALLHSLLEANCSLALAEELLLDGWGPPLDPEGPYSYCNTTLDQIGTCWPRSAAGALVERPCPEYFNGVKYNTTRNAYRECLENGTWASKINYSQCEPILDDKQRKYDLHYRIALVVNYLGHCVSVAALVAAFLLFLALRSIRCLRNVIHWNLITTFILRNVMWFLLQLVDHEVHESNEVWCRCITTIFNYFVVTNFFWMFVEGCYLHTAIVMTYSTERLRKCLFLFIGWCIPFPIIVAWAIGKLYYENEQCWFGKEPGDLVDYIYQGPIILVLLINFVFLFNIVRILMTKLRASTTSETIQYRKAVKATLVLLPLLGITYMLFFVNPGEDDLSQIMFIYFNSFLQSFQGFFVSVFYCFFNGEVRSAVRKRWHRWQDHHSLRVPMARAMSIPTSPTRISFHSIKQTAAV
Summary of the method: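 Thawed frozen stably transfected cells in HBSS/20 mM HEPES (0% or 0.1% HSA) plus 2 mM IBMX were exposed to compound at 2000 cells/well for 30 min at room temperature. Intracellular cAMP was read by HTRF (665/620 nm ratio) after 1 h lysis; EC50 was derived with 1000 nM urocortin 2 set as 100%.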

rat CRF2R α receptor = assay: cAMP agonism at rat CRF2R α receptor in A7R5 rat aortic smooth muscle cells (Example 8); assay type: cell-based; settings: cAMP HTRF, A7R5 rat aortic smooth muscle cell line, 0% HSA
Method: Cells were grown in a T175 culture flask placed at 37° C. to near confluence in medium (DMEM/10% FBS) and collected in 2 ml vials in cell culture medium containing 10% DMSO in a concentration of 10-50 million cells/ml. Each vial contained 1.8 ml cells. The vials were slowly frozen to −80° C. in isopropanol and then transferred in liquid nitrogen for storage. Prior to use, frozen cells were thawed quickly at 37° C. and washed (5 min at 900 rpm) with 20 ml cell buffer (1×HBSS; 20 mM HEPES; 0% or 0.1% HSA). Cells were resuspended in assay buffer (cell buffer plus 2 mM IBMX) and adjusted to a cell density of 1 million cells/ml. For measurement, 5 μl cells (final […]) and 5 μL of test compound were added to a 384-well plate, followed by incubation for 30 minutes at room temperature.
The CAMP content of cells was determined using a kit from Cisbio Corp. (cat. no. 62AM4PEC) based on HTRF (Homogenous Time Resolved Fluorescence). After addition of HTRF reagents diluted in lysis buffer (kit components), the plates were incubated for 1 h, followed by measurement of the fluorescence ratio at 665/620 nm. The percent activity value (E %) was calculated by setting 1000 nM of urocortin 2 (UCN2) as 100%. The in vitro potency of the compounds was quantified by determining the concentrations that caused 50% activation of maximal response (EC50).
Using the procedure described in Example 7, the activity of the compounds at the rat CRF2R α receptor was assessed. The A7R5 rat aortic smooth muscle cell line was used in this study.

[1] = 0% HSA, read-out: EC50 [nM], 0% HSA
[2] = 0.1% HSA, read-out: EC50 [nM], 0.1% HSA

Compound	EC50 (human CRF2α receptor; [1])	EC50 (human CRF2α receptor; [2])	EC50 (rat CRF2R α receptor)
CC[C@H](C)[C@H](N)C(=O)N[C@H](C(=O)N[C@@H](CC(C)C)C(=O)N[C@@H](CO)C(=O)N[C@@H](CC(C)C)C(=O)N[C@@H](CC(=O)O)C(=O)N[C@@H](C(=O)N1CCC[C@H]1C(=O)N[C@H](C(=O)N[C@@H](CCCCN)C(=O)N[C@@H](CC(C)C)C(=O)N[C@@H](CCCCNC(=O)COCCOCCNC(=O)COCCOCCNC(=O)CC[C@H](NC(=O)CCCCCCCCCCCCCCCCCCC(=O)O)C(=O)O)C(=O)N[C@@H](CCC(N)=O)C(=O)N[C@H](C(=O)N[C@@H](CC(C)C)C(=O)N[C@@H](CC(C)C)C(=O)N[C@@H](CCCCN)C(=O)N[C@@H](CCC(N)=O)C(=O)N[C@@H](CCC(=O)O)C(=O)N[C@@H](CCCNC(=N)N)C(=O)N[C@@H](CCC(N)=O)C(=O)N[C@@H](CCCCN)C(=O)NC(C)(C)C(=O)N[C@@H](CCC(N)=O)C(=O)N[C@@H](CCCNC(=N)N)C(=O)N[C@@H](CCC(=O)O)C(=O)N[C@@H](CCC(N)=O)C(=O)N[C@@H](C)C(=O)N[C@@H](CCC(=O)O)C(=O)N[C@@H](CCCCN)C(=O)N[C@@H](CC(N)=O)C(=O)N[C@@H](CCCCN)C(=O)N[C@@H](CCC(N)=O)C(=O)N[C@H](C(=O)N[C@@H](CC(C)C)C(=O)N[C@@H](C)C(=O)N[C@@H](CCC(N)=O)C(=O)N[C@H](C(N)=O)C(C)C)[C@@H](C)CC)[C@@H](C)CC)[C@@H](C)CC)C(C)C)C(C)C [compound 173] (H-IVLSLD[dV]PIKLK([AEEA-AEEA-γGlu-C20 diacid])QILLKQERQK[Aib]QREQAEKNKQILAQV-NH2; N-terminus assumed)	0.03 nM	3.49 nM	0.83 nM
CC[C@H](C)[C@H](N)C(=O)N[C@H](C(=O)N[C@@H](CC(C)C)C(=O)N[C@@H](CO)C(=O)N[C@@H](CC(C)C)C(=O)N[C@@H](CC(=O)O)C(=O)N[C@@H](C(=O)N1CCC[C@H]1C(=O)N[C@H](C(=O)N[C@@H](CCCCN)C(=O)N[C@@H](CC(C)C)C(=O)N[C@@H](CCCCNC(=O)COCCOCCNC(=O)COCCOCCNC(=O)CC[C@H](NC(=O)CC[C@H](NC(=O)CCCCCCCCCCCCCCCCC(=O)O)C(=O)O)C(=O)O)C(=O)N[C@@H](CCC(N)=O)C(=O)N[C@H](C(=O)N[C@@H](CC(C)C)C(=O)N[C@@H](CC(C)C)C(=O)N[C@@H](CCCCN)C(=O)N[C@@H](CCC(N)=O)C(=O)N[C@@H](C)C(=O)N[C@@H](CCCNC(=N)N)C(=O)N[C@@H](CCC(N)=O)C(=O)N[C@@H](CCCCN)C(=O)NC(C)(C)C(=O)N[C@@H](CCC(N)=O)C(=O)N[C@@H](CCCNC(=N)N)C(=O)N[C@@H](C)C(=O)N[C@@H](CCC(N)=O)C(=O)N[C@@H](C)C(=O)N[C@@H](CCC(=O)O)C(=O)N[C@@H](CCCCN)C(=O)N[C@@H](CC(N)=O)C(=O)N[C@@H](CCCCN)C(=O)N[C@@H](CCCNC(=N)N)C(=O)N[C@H](C(=O)N[C@@H](CC(C)C)C(=O)N[C@@H](CCC(=O)O)C(=O)N[C@@H](CCCNC(=N)N)C(=O)N[C@H](C(N)=O)C(C)C)[C@@H](C)CC)[C@@H](C)CC)[C@@H](C)CC)C(C)C)C(C)C [compound 174] (H-IVLSLD[dV]PIKLK([AEEA-AEEA-γGlu-γGlu-C18 diacid])QILLKQARQK[Aib]QRAQAEKNKRILERV-NH2; N-terminus assumed)	0.07 nM	0.88 nM	0.42 nM
CC[C@H](C)[C@H](N)C(=O)N[C@H](C(=O)N[C@@H](CC(C)C)C(=O)N[C@@H](CO)C(=O)N[C@@H](CC(C)C)C(=O)N[C@@H](CC(=O)O)C(=O)N[C@@H](C(=O)N1CCC[C@H]1C(=O)N[C@H](C(=O)N[C@@H](CCCCN)C(=O)N[C@@H](CC(C)C)C(=O)N[C@@H](CCCCNC(=O)CCCCCCCCCCCCCCCCC(=O)O)C(=O)N[C@@H](CCC(N)=O)C(=O)N[C@H](C(=O)N[C@@H](CC(C)C)C(=O)N[C@@H](CC(C)C)C(=O)N[C@@H](CCCCN)C(=O)N[C@@H](CCC(N)=O)C(=O)N[C@@H](CCC(=O)O)C(=O)N[C@@H](CCCNC(=N)N)C(=O)N[C@@H](CCC(N)=O)C(=O)N[C@@H](CCCCN)C(=O)NC(C)(C)C(=O)N[C@@H](CCC(N)=O)C(=O)N[C@@H](CCCNC(=N)N)C(=O)N[C@@H](CCC(=O)O)C(=O)N[C@@H](CCC(N)=O)C(=O)N[C@@H](C)C(=O)N[C@@H](CCC(=O)O)C(=O)N[C@@H](CCCCN)C(=O)N[C@@H](CC(N)=O)C(=O)N[C@@H](CCCCN)C(=O)N[C@@H](CCC(N)=O)C(=O)N[C@H](C(=O)N[C@@H](CC(C)C)C(=O)N[C@@H](C)C(=O)N[C@@H](CCC(N)=O)C(=O)N[C@H](C(N)=O)C(C)C)[C@@H](C)CC)[C@@H](C)CC)[C@@H](C)CC)C(C)C)C(C)C [compound 182] (H-IVLSLD[dV]PIKLK(C18 diacid)QILLKQERQK[Aib]QREQAEKNKQILAQV-NH2; N-terminus assumed)	0.03 nM	3.13 nM	0.59 nM
CC[C@H](C)[C@H](N)C(=O)N[C@H](C(=O)N[C@@H](CC(C)C)C(=O)N[C@@H](CO)C(=O)N[C@@H](CC(C)C)C(=O)N[C@@H](CC(=O)O)C(=O)N[C@@H](C(=O)N1CCC[C@H]1C(=O)N[C@H](C(=O)N[C@@H](CCCCN)C(=O)N[C@@H](CC(C)C)C(=O)N[C@@H](CCCCNC(=O)CCCCCCCCCCCCCCCCC(=O)O)C(=O)N[C@@H](CCC(N)=O)C(=O)N[C@H](C(=O)N[C@@H](CC(C)C)C(=O)N[C@@H](CC(C)C)C(=O)N[C@@H](CCCCN)C(=O)N[C@@H](CCC(N)=O)C(=O)N[C@@H](C)C(=O)N[C@@H](CCCNC(=N)N)C(=O)N[C@@H](CCC(N)=O)C(=O)N[C@@H](CCCCN)C(=O)NC(C)(C)C(=O)N[C@@H](CCC(N)=O)C(=O)N[C@@H](CCCNC(=N)N)C(=O)N[C@@H](C)C(=O)N[C@@H](CCC(N)=O)C(=O)N[C@@H](C)C(=O)N[C@@H](CCC(=O)O)C(=O)N[C@@H](CCCCN)C(=O)N[C@@H](CC(N)=O)C(=O)N[C@@H](CCCCN)C(=O)N[C@@H](CCCNC(=N)N)C(=O)N[C@H](C(=O)N[C@@H](CC(C)C)C(=O)N[C@@H](CCC(=O)O)C(=O)N[C@@H](CCCNC(=N)N)C(=O)N[C@H](C(N)=O)C(C)C)[C@@H](C)CC)[C@@H](C)CC)[C@@H](C)CC)C(C)C)C(C)C [compound 183] (H-IVLSLD[dV]PIKLK(C18 diacid)QILLKQARQK[Aib]QRAQAEKNKRILERV-NH2; N-terminus assumed)	0.12 nM	1.58 nM	1.12 nM
CC[C@H](C)[C@H](N)C(=O)N[C@H](C(=O)N[C@@H](CC(C)C)C(=O)N[C@@H](CO)C(=O)N[C@@H](CC(C)C)C(=O)N[C@@H](CC(=O)O)C(=O)N[C@@H](C(=O)N1CCC[C@H]1C(=O)N[C@H](C(=O)N[C@@H](CCCCN)C(=O)N[C@@H](CC(C)C)C(=O)N[C@@H](CCCCNC(=O)CCCCCCCCCCCCCCCCC(=O)O)C(=O)N[C@@H](CCC(N)=O)C(=O)N[C@H](C(=O)N[C@@H](CC(C)C)C(=O)N[C@@H](CC(C)C)C(=O)N[C@@H](CCCCN)C(=O)N[C@@H](CCC(N)=O)C(=O)N[C@@H](CCC(=O)O)C(=O)N[C@@H](CCCNC(=N)N)C(=O)N[C@@H](CCC(N)=O)C(=O)N[C@@H](CCCCN)C(=O)N[C@@H](CCCCN)C(=O)N[C@@H](CCC(N)=O)C(=O)N[C@@H](CCCNC(=N)N)C(=O)N[C@@H](CCC(N)=O)C(=O)N[C@@H](CCC(N)=O)C(=O)N[C@@H](C)C(=O)N[C@@H](CCC(=O)O)C(=O)N[C@@H](CCCCN)C(=O)N[C@@H](CC(N)=O)C(=O)N[C@@H](CCCCN)C(=O)N[C@@H](CCC(N)=O)C(=O)N[C@H](C(=O)N[C@@H](CC(C)C)C(=O)N[C@@H](C)C(=O)N[C@@H](CCC(N)=O)C(=O)N[C@H](C(N)=O)C(C)C)[C@@H](C)CC)[C@@H](C)CC)[C@@H](C)CC)C(C)C)C(C)C [compound 184] (H-IVLSLD[dV]PIKLK(C18 diacid)QILLKQERQKKQRQQAEKNKQILAQV-NH2; N-terminus assumed)	0.05 nM	2.83 nM	0.42 nM

Source: patent publication US12679878B2, “CRF2 receptor agonists and their use in therapy” (SANOFI, priority 2020, dated 2026)
